Columns and labels:
Format in all cases: in vivo
[1] = tested on: green peach aphid (Myzus persicae (Sulzer)); test: Test E: control of green peach aphid through contact and/or systemic means; conditions: 144 h, radish plant, assessed after 6 days; for mortality at 250 ppm: sprayed at 250 ppm
Description: (§1) Test compounds were formulated using a solution containing 10% acetone, 90% water and 300 ppm X-77® Spreader Lo-Foam Formula non-ionic surfactant containing alkylarylpolyoxyethylene, free fatty acids, glycols and isopropanol (Loveland Industries, Inc. Greeley, Colo., USA). The formulated compounds were applied in 1 mL of liquid through a SUJ2 atomizer nozzle with ⅛ JJ custom body (Spraying Systems Co. Wheaton, Ill., USA) positioned 1.27 cm (0.5 inches) above the top of each test unit. Test compounds were sprayed at the rates indicated, and each test was replicated three times.
For evaluating control of green peach aphid (Myzus persicae (Sulzer)) through contact and/or systemic means, the test unit consisted of a small open container with a 12-15-day-old radish plant inside. This was pre-infested by placing on a leaf of the test plant 30-40 aphids on a piece of leaf excised from a culture plant (cut-leaf method). The aphids moved onto the test plant as the leaf piece desiccated. After pre-infestation, the soil of the test unit was covered with a layer of sand.
(§2) Test compounds were formulated and sprayed at 250 and/or 50 ppm. After spraying of the formulated test compound, each test unit was allowed to dry for 1 hour and then a black, screened cap was placed on top. The test units were held for 6 days in a growth chamber at 19-21° C. and 50-70% relative humidity. Each test unit was then visually assessed for insect mortality.

[2] = tested on: corn planthopper (Peregrinus maidis (Ashmead)); test: Test C: control of corn planthopper through contact and/or systemic means; conditions: 144 h, corn (maize) plant, nymphs, assessed after 6 days; for mortality at 250 ppm: sprayed at 250 ppm
Description: as §1
For evaluating control of corn planthopper (Peregrinus maidis (Ashmead)) through contact and/or systemic means, the test unit consisted of a small open container with a 3-4-day-old corn (maize) plant inside. White sand was added to the top of the soil prior to application of the test compound.
(§3) Test compounds were formulated and sprayed at 250 and/or 50 ppm. After spraying of the formulated test compound, the test units were allowed to dry for 1 h before they were post-infested with ˜15-20 nymphs (18-to-21-day-old). A black, screened cap was placed on the top of each test unit, and the test units were held for 6 days in a growth chamber at 22-24° C. and 50-70% relative humidity. Each test unit was then visually assessed for insect mortality.

[3] = tested on: potato leafhopper (Empoasca fabae (Harris)); test: Test D: control of potato leafhopper through contact and/or systemic means; conditions: 144 h, Soleil bean plant, adults, assessed after 6 days; for mortality at 50 ppm: sprayed at 50 ppm; for mortality at 250 ppm: sprayed at 250 ppm
Description: as §1
For evaluating control of potato leafhopper (Empoasca fabae (Harris)) through contact and/or systemic means, the test unit consisted of a small open container with a 5-6-day-old Soleil bean plant (primary leaves emerged) inside. White sand was added to the top of the soil, and one of the primary leaves was excised prior to application of the test compound.
as §3, with “1 hour” for “1 h”, “with 5 potato leafhoppers (18-to-21-day-old adults).” for “with ˜15-20 nymphs (18-to-21-day-old).”, “of the” for “of each”, “at 20°” for “at 22-24°”, “and 70%” for “and 50-70%”

[4] = tested on: diamondback moth (Plutella xylostella (L.)); test: Test A: control of diamondback moth, foliar spray on mustard plant; conditions: neonate larvae, assessed after 6 days
Description: as §1
For evaluating control of diamondback moth (Plutella xylostella (L.)) the test unit consisted of a small open container with a 12-14-day-old mustard plant inside. This was pre-infested with ˜50 neonate larvae that were dispensed into the test unit via corn cob grits using an inoculator. The larvae moved onto the test plant after being dispensed into the test unit.
as §2, with “25°” for “19-21°”, “70%” for “50-70%”, “Plant feeding damage” for “Each test unit”, “assessed based on foliage consumed, and larvae were assessed” for “assessed”, “for” for “for insect”

[5] = tested on: fall armyworm (Spodoptera frugiperda (J. E. Smith)); test: Test B: control of fall armyworm, foliar spray on corn (maize) plant; conditions: 1-day-old larvae, assessed after 6 days
Description: as §1
For evaluating control of fall armyworm (Spodoptera frugiperda (J. E. Smith)) the test unit consisted of a small open container with a 4-5-day-old corn (maize) plant inside. This was pre-infested with 10-15 1-day-old larvae on a piece of insect diet.
Test compounds were formulated and sprayed at 250 and/or 50 ppm. After spraying of the formulated test compound, the test units were maintained in a growth chamber for 6 days at 25° C. and 70% relative humidity. Plant feeding damage was then visually assessed based on foliage consumed, and larvae were assessed for mortality.

[6] = tested on: Western Flower Thrips (Frankliniellla occidentalis (Pergande)); test: Test F: control of Western Flower Thrips through contact and/or systemic means; conditions: sprayed at 250 ppm; Soleil bean plant, adult thrips; held for 6 days
Description: as §1
For evaluating control of the Western Flower Thrips (Frankliniellla occidentalis (Pergande)) through contact and/or systemic means, the test unit consisted of a small open container with a 5-7-day-old Soleil bean plant inside.
Test compounds were formulated and sprayed at 250 ppm. After spraying, the test units were allowed to dry for 1 hour, and then 22-27 adult thrips were added to each unit. A black, screened cap was placed on top, and the test units were held for 6 days at 25° C. and 45-55% relative humidity.

Compound | mortality at 250 ppm [1] [%] | mortality at 250 ppm [2] [%] | mortality at 50 ppm [3] [%] | mortality at 250 ppm [3] [%] | control efficacy (40% or less feeding damage and/or 100% mortality) ([4]; sprayed at 50 ppm) | control efficacy (40% or less feeding damage and/or 100% mortality) ([4]; sprayed at 250 ppm) | control efficacy (40% or less feeding damage and/or 100% mortality) ([5]; sprayed at 50 ppm) | control efficacy (40% or less feeding damage and/or 100% mortality) ([5]; sprayed at 250 ppm) | control efficacy (30% or less plant damage and/or 100% mortality) [6] | mortality at 50 ppm ([1]; sprayed at 50 ppm) [%] | mortality at 50 ppm ([2]; sprayed at 50 ppm) [%]
FC(F)(F)c1ccnc(-n2cc(CN3CCC(C(F)(F)F)CC3)c(C3CCCC3)n2)c1 [Compound 25, 2-[3-cyclopentyl-4-[[4-(trifluoromethyl)-1-piperidinyl]methyl]-1H-pyrazol-1-yl]-4-(trifluoromethyl)pyridine] | ≥ 80 | ≥ 80 | ≥ 80 | ≥ 80 | very good to excellent levels of control efficacy | very good to excellent levels of control efficacy | very good to excellent levels of control efficacy | very good to excellent levels of control efficacy | very good to excellent levels of control efficacy |  | 
N#CC1CCN(Cc2cn(-c3cc(C(F)(F)F)ccn3)nc2C2CCCC2)CC1 [Compound 26, 1-[[3-cyclopentyl-1-[4-(trifluoromethyl)-2-pyridinyl]-1H-pyrazol-4-yl]methyl]-4-piperidinecarbonitrile] | ≥ 80 |  |  | ≥ 80 | very good to excellent levels of control efficacy | very good to excellent levels of control efficacy | very good to excellent levels of control efficacy | very good to excellent levels of control efficacy | very good to excellent levels of control efficacy | ≥ 80 | 
N#CC1CCN(Cc2cn(-c3ccc(Cl)c(Cl)c3)nc2C2CCC2)CC1 [Compound 27] |  |  |  |  | very good to excellent levels of control efficacy | very good to excellent levels of control efficacy | very good to excellent levels of control efficacy | very good to excellent levels of control efficacy | very good to excellent levels of control efficacy |  | 
CC(C)c1nn(-c2cc(C(F)(F)F)ccn2)cc1CN1CCC(C(F)(F)F)CC1 [Compound 54, 2-[3-(1-methylethyl)-4-[[4-(trifluoromethyl)-1-piperidinyl]methyl]-1H-pyrazol-1-yl]-4-(trifluoromethyl)pyridine] |  | ≥ 80 | ≥ 80 | ≥ 80 |  |  |  |  |  |  | ≥ 80

— patent publication US10112906B2, “1-aryl-3-alkylpyrazole insecticides” (E. I. DU PONT DE NEMOURS AND COMPANY, priority 2013, dated 2018)
